As usually defined, the IC50 is the point on the concentration scale where inhibition reaches its midpoint.

Read-outs that look alike come from different tables or passages of the source. Some results are limits rather than exact numbers.

The target in one assay is c-Kit (Homo sapiens (Human), UniProt P10721). Nature of the assay: Inhibition of c-Kit kinase activity (HTRF KinEASE-TK). The assay is classed as biochemical. The method in brief: (§1)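 Human kinases were preincubated 1 h at rt with a 22-point 1:2 compound titration, then run 120 min at rt with biotinylated TK peptide and ATP (2× mix: c-Kit 16 μM, PDGFRα 1 μM, PDGFRβ 40 μM, CSF1R 20 μM). Phosphopeptide was read by HTRF TR-FRET (665/620 nm), and IC50s came from 4-parameter fits.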
Sequence of c-Kit (P10721 26-976): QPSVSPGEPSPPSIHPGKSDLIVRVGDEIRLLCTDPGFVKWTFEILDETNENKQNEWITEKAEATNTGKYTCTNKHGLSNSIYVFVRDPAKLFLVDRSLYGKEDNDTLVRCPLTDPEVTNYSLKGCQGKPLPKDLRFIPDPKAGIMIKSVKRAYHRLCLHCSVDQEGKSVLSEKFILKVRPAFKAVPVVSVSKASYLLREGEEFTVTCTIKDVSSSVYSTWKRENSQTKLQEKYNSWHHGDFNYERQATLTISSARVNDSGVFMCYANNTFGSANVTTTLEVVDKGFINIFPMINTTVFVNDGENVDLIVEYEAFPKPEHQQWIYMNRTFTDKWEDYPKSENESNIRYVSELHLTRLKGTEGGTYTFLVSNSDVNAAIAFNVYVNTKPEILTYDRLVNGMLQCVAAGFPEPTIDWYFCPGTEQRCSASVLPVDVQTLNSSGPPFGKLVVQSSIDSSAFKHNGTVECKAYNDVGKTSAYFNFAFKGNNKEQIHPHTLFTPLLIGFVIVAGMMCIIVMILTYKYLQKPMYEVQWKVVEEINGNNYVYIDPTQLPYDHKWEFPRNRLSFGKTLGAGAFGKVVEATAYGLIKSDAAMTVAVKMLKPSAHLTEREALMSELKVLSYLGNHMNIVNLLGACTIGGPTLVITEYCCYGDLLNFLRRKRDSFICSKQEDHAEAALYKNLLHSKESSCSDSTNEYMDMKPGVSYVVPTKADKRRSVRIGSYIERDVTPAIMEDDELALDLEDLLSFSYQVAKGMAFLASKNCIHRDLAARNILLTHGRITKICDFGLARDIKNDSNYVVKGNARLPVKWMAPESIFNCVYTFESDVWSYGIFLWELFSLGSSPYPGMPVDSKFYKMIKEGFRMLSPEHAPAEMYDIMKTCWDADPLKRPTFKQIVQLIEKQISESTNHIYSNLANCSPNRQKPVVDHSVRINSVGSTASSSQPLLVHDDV
On the technique in general: TR-FRET usually uses a lanthanide donor and a delayed reading to cut background.

Another assay concerns the target PDGFRα (Homo sapiens (Human), UniProt P16234). Nature of the assay: Inhibition of PDGFRα kinase activity (HTRF KinEASE-TK). To be noted: biochemical, HTRF KinEASE-TK. In short, it runs like this: as §1
Another assay concerns the target PDGFRβ (Homo sapiens (Human), UniProt P09619). Kind of assay: Inhibition of PDGFRβ kinase activity (HTRF KinEASE-TK). To be noted: biochemical, HTRF KinEASE-TK. In short, it runs like this:
as §1

The target of the next assay is CSF1R (Homo sapiens (Human), UniProt P07333). Nature of the assay: Inhibition of CSF1R kinase activity (HTRF KinEASE-TK). To be noted: biochemical, HTRF KinEASE-TK. The method in brief:
as §1

In a further assay the target is FLT3 (Homo sapiens (Human), UniProt P36888). Kind of assay: Inhibition of FLT3 kinase activity (HTRF KinEASE-TK). The assay is classed as biochemical. In short, it runs like this:
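FLT3 tyrosine kinase activity was measured with the HTRF KinEASE-TK kit by following phosphorylation of a biotinylated TK peptide. After the 45 min reaction, 10 μL of detection mix was added: 0.2 μM (2×) Streptavidin-XL665 and 2 μM (2×) TK-Antibody-Cryptate in detection buffer. After 60 min, TR-FRET was read on an Envision as the 665 nm/620 nm emission ratio with 320 nm excitation.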

Assay [1] relates to Phospho-KIT (Y703) in M07e cells. Nature of the assay: Phospho-KIT (Y703) cellular assay in M07e cells. To be noted: M-07e, read-out: M07e Cell IC50. The assay is classed as cell-based. The method in brief: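 Serum-starved M07e cells preincubated 50 min at 37° C with 11-point half-log compound titration, then stimulated 10 min with SCF at 90.9 ng/mL final. Fixed, permeabilized cells stained for phospho-KIT Y703 and read by flow cytometry (live-gated geometric mean); IC50 by 4-parameter fit normalized to DMSO and positive control.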

Sequence of CSF1R (P07333 20-972): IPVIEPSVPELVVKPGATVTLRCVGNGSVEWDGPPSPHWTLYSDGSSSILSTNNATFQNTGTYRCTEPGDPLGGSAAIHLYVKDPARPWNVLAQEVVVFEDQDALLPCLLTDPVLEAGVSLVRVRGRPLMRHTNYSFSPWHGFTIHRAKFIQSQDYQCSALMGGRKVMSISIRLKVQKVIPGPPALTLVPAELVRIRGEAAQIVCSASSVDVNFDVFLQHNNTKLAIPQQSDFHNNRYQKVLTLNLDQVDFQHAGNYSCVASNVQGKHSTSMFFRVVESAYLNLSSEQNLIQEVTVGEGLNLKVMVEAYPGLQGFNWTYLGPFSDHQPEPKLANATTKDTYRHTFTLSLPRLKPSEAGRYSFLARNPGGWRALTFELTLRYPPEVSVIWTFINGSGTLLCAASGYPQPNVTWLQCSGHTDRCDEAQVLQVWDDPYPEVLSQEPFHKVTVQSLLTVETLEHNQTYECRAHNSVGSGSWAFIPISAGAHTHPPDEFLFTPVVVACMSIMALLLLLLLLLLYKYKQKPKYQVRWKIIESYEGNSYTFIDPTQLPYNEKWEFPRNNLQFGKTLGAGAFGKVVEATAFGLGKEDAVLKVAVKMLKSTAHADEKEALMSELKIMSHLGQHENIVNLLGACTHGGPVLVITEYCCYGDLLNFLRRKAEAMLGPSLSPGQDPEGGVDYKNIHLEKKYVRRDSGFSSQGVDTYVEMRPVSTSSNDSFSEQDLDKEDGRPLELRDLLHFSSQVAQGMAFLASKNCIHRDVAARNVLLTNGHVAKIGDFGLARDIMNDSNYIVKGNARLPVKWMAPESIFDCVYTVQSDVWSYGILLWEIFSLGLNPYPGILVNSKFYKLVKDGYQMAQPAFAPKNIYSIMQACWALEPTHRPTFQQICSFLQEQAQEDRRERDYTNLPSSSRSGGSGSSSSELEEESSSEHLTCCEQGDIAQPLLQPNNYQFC
Sequence of PDGFRα (P16234 24-1089): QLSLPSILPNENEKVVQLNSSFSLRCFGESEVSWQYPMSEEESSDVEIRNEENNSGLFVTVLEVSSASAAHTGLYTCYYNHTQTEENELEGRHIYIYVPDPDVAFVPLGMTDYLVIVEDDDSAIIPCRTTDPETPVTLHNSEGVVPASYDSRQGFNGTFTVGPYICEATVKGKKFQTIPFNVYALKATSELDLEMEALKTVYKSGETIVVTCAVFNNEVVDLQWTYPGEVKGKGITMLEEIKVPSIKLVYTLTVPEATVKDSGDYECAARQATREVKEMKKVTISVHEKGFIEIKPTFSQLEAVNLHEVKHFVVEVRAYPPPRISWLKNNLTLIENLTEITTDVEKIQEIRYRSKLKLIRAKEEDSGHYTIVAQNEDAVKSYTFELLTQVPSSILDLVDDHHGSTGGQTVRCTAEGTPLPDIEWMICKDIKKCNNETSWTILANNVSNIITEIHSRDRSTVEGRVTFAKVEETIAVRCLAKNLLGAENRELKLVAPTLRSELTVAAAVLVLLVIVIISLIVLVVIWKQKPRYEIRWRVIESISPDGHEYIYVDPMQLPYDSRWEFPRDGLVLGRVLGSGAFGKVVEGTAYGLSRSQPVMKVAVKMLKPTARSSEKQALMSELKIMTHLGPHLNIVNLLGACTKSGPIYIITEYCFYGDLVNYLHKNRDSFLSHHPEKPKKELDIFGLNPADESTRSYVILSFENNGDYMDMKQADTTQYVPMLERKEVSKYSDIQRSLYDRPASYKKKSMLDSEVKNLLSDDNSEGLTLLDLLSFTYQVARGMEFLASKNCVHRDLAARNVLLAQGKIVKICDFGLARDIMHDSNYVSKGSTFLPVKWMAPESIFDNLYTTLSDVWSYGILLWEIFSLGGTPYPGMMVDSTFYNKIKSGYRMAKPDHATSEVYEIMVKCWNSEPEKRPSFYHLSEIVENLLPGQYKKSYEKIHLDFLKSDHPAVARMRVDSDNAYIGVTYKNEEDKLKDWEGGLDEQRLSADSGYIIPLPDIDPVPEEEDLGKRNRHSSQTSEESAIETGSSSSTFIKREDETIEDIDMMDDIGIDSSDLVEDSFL
Sequence of FLT3 (P36888 27-993): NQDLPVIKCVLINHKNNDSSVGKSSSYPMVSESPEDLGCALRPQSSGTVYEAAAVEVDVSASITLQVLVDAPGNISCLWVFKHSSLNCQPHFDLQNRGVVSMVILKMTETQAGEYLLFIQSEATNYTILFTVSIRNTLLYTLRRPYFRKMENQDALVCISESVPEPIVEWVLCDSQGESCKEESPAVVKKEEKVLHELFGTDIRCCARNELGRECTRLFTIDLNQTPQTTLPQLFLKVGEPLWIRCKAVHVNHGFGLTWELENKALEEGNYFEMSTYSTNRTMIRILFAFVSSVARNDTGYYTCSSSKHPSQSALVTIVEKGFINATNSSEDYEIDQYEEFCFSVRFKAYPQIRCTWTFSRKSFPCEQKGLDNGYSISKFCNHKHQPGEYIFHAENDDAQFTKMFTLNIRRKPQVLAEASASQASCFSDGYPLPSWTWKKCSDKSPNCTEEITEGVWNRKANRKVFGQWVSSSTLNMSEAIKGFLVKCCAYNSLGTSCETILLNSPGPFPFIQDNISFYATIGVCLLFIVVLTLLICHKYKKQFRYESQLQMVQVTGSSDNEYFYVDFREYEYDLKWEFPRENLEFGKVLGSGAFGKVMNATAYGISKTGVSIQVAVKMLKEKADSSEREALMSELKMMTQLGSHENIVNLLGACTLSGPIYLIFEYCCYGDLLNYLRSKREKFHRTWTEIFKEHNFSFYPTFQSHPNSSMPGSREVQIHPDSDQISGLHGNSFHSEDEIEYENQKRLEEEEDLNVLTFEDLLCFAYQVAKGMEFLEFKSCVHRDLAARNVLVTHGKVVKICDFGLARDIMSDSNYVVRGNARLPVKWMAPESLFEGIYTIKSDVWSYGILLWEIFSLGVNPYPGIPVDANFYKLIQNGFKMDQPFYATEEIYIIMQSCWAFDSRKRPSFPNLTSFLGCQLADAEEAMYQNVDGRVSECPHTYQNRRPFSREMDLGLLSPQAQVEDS
Sequence of PDGFRβ (P09619 33-1106): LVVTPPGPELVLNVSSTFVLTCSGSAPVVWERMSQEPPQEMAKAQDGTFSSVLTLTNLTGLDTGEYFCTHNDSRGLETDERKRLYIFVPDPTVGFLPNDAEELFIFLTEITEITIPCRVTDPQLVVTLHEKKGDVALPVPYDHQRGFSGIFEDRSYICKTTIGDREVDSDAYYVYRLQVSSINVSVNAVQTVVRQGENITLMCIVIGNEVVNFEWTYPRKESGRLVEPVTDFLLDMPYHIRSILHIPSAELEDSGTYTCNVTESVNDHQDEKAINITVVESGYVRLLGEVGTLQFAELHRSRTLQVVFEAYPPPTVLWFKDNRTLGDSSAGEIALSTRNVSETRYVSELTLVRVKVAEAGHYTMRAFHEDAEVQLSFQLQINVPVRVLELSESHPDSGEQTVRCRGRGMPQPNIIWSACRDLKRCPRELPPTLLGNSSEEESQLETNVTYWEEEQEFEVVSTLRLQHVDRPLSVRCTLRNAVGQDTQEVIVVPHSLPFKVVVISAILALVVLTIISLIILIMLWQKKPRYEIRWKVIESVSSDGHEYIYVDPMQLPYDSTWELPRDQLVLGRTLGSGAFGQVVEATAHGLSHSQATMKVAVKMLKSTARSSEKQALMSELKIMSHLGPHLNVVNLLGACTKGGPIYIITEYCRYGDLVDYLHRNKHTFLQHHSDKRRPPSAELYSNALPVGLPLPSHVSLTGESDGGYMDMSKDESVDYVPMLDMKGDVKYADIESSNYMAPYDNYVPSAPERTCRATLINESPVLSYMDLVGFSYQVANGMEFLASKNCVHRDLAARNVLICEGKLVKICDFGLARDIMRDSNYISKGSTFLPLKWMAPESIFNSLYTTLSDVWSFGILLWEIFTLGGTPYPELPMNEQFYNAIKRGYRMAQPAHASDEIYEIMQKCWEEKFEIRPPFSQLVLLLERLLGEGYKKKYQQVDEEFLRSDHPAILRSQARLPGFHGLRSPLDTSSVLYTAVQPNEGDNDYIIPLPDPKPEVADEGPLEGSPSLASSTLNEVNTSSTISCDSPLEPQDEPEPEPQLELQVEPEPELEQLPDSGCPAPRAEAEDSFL

Consider `Cc1cc(F)c(C(=O)Nc2ccc(OC(C)C)cn2)cc1NC(=O)c1cnc(N)s1` [Example 140, 2-Amino-N-[4-fluoro-2-methyl-5-[(5-propan-2-yloxypyridin-2-yl)carbamoyl]phenyl]-1,3-thiazole-5-carboxamide], for which the IC50 at c-Kit was less than 0.1 µM; on PDGFRα, 0.1 to 1 µM; on PDGFRβ, 0.1 to 1 µM; at CSF1R, 0.1 to 1 µM; on FLT3 it was more than 1 µM; in assay [1] it was less than 0.1 µM.
As for `Cc1cc(F)c(C(=O)Nc2ccn(CC(C)C)n2)cc1NC(=O)c1cnc(N)s1` [Example 142, 2-Amino-N-[4-fluoro-2-methyl-5-[[1-(2-methylpropyl)pyrazol-3-yl]carbamoyl]phenyl]-1,3-thiazole-5-carboxamide], the IC50 against c-Kit (biochemical, HTRF KinEASE-TK) was less than 0.1 µM; against PDGFRα it was 0.1 to 1 µM; against PDGFRβ, 0.1 to 1 µM; on CSF1R it was more than 1 µM; at FLT3 (biochemical, HTRF KinEASE-TK) it was more than 1 µM; in assay [1] (Phospho-KIT (Y703), M07e cells) it was less than 0.1 µM.
Consider `Cc1cc(F)c(C(=O)Nc2ccc(OCC3CC3)cn2)cc1NC(=O)c1cnc(N)s1` [Example 143, 2-Amino-N-[5-[[5-(cyclopropylmethoxy)pyridin-2-yl]carbamoyl]-4-fluoro-2-methylphenyl]-1,3-thiazole-5-carboxamide], for which the IC50 against c-Kit (biochemical, HTRF KinEASE-TK) was less than 0.1 µM; against PDGFRα, more than 1 µM; on PDGFRβ, 0.1 to 1 µM; against CSF1R, more than 1 µM; on FLT3 (biochemical, HTRF KinEASE-TK), more than 1 µM; in assay [1] (Phospho-KIT (Y703), M07e cells) it was less than 0.1 µM.
Regarding `Cc1cc(F)c(C(=O)Nc2ccc(OC3(C)CC3)cn2)cc1NC(=O)c1cnc(N)s1` [Example 147, 2-Amino-N-[4-fluoro-2-methyl-5-[[5-(1-methylcyclopropyl)oxypyridin-2-yl]carbamoyl]phenyl]-1,3-thiazole-5-carboxamide], the IC50 was less than 0.1 µM against c-Kit (biochemical, HTRF KinEASE-TK); 0.1 to 1 µM against PDGFRα; less than 0.1 µM against PDGFRβ; 0.1 to 1 µM against CSF1R; more than 1 µM against FLT3 (biochemical, HTRF KinEASE-TK); less than 0.1 µM in assay [1] (Phospho-KIT (Y703), M07e cells).
For the molecule `Cc1cc(F)c(C(=O)Nc2ccn(CC(F)F)n2)cc1NC(=O)c1cnc(N)s1` [Example 148, 2-Amino-N-[5-[[1-(2,2-difluoroethyl)pyrazol-3-yl]carbamoyl]-4-fluoro-2-methylphenyl]-1,3-thiazole-5-carboxamide], the IC50 at c-Kit (biochemical, HTRF KinEASE-TK) is less than 0.1 µM; against PDGFRα it was more than 1 µM; at PDGFRβ, 0.1 to 1 µM; on CSF1R, more than 1 µM; at FLT3 (biochemical, HTRF KinEASE-TK) it was more than 1 µM; in assay [1] (Phospho-KIT (Y703), M07e cells), less than 0.1 µM.
Regarding `Cc1cc(F)c(C(=O)Nc2ccn([C@@H]3CCOC3)n2)cc1NC(=O)c1cnc(N)s1` [Example 149, 2-Amino-N-[4-fluoro-2-methyl-5-[[1-[(3R)-oxolan-3-yl]pyrazol-3-yl]carbamoyl]phenyl]-1,3-thiazole-5-carboxamide], the IC50 on c-Kit (biochemical, HTRF KinEASE-TK) is less than 0.1 µM; against PDGFRα, more than 1 µM; against PDGFRβ, 0.1 to 1 µM; on CSF1R, more than 1 µM; against FLT3 (biochemical, HTRF KinEASE-TK), more than 1 µM; in assay [1] (Phospho-KIT (Y703), M07e cells) it was less than 0.1 µM.
Take `Cc1cc(F)c(C(=O)Nc2ccn(C3CCOCC3)n2)cc1NC(=O)c1cnc(N)s1` [Example 150, 2-Amino-N-[4-fluoro-2-methyl-5-[[1-(oxan-4-yl)pyrazol-3-yl]carbamoyl]phenyl]-1,3-thiazole-5-carboxamide]: the half-inhibitory concentration (IC50) at c-Kit (biochemical, HTRF KinEASE-TK) was less than 0.1 µM; against PDGFRα, more than 1 µM; against PDGFRβ, more than 1 µM; on CSF1R, more than 1 µM; against FLT3 (biochemical, HTRF KinEASE-TK), more than 1 µM; in assay [1] (Phospho-KIT (Y703), M07e cells), less than 0.1 µM.
As to `Cc1cc(F)c(C(=O)Nc2ccc(OC3CC3)c(C)n2)cc1NC(=O)c1cnc(N)s1` [Example 152, 2-Amino-N-[5-[(5-cyclopropyloxy-6-methylpyridin-2-yl)carbamoyl]-4-fluoro-2-methylphenyl]-1,3-thiazole-5-carboxamide], the IC50 against c-Kit (biochemical, HTRF KinEASE-TK) was less than 0.1 µM; on PDGFRα it was 0.1 to 1 µM; against PDGFRβ it was 0.1 to 1 µM; against CSF1R, more than 1 µM; at FLT3 (biochemical, HTRF KinEASE-TK), more than 1 µM; in assay [1] (Phospho-KIT (Y703), M07e cells) it was less than 0.1 µM.
